Experimental findings from patent publication US6355619B1, “Peptide tumor cell growth inhibitors” (Board of Regents, The University of Texas System, priority 1996, dated 2002) are described below.

Some results are limits rather than exact numbers.

One test relates to RPMI-7951 melanoma cells. Kind of test: Cell growth assay, RPMI-7951. It is filed as cell-based. The method, then:
FIG. 15B. The effect of Antileukinate on the growth of melanoma cells. Melanoma cell lines and a control liver cancer cell line (2×10^4 cells/well) in […] were cultured in a 24 well tissue culture plate in the presence of various concentrations of Antileukinate for 3 d. The culture media were changed to fresh media containing the same concentration of Antileukinate every 24 hr during the incubation period. After incubation, the cells were collected and the cell number was counted using a hemocytometer. RPMI-7951 cell line. Analysis of variance was used for multiple comparison.
The cell lines (2×10^4 cells/well) in 500 μl cell culture medium were grown in 24 well tissue culture plates. After the cells adhered to the plate, the supernatants were aspirated and 500 μl of media containing various concentrations of Antileukinate were added to the wells. The cells were cultured for period indicated in the text. The culture media were changed to fresh media every 24 hr. After incubation, the cells were detached with trypsin-EDTA solution (Life Technologies Inc., Gaithersburg, Md., containing 0.05% of trypsin and 0.53 mM of EDTA in Hanks Balanced Salt Solution without Ca^2+ and Mg^2+) and the cell number was counted using a hemocytometer.

Test [1] relates to IL-8-stimulated neutrophil enzyme release. Put plainly: β-glucuronidase release from neutrophils stimulated by IL-8. It is filed as cell-based, human. How it is done: (§1) FIG. 8. The Effect of Ac-RRWWCR-NH2 (SEQ ID NO:1) on β-glucuronidase Release. Neutrophils pretreated with cytochalasin B were incubated with 100 nM IL-8 (●), 100 nM fMLP (▪), 100 nM C5a (_) or 100 nM leukotriene B4 ? or without any stimulant (◯) in the presence of increasing concentration of Ac-RRWWCR-NH2 (SEQ ID NO:1) for 30 min at 37° C. β-glucuronidase activity of supernatants were measured using phenolphthalein-glucuronic acid as substrate. Analysis of variance was used for multiple comparison.
(§2) Neutrophil enzyme release was studied by a modification of the method of Goldstein and colleagues (Goldstein et al., 1973). Cytochalasin B (Sigma Chemical Co.) was stored in dimethyl sulfoxide at a concentration of 5 mg/ml and was diluted to a concentration of 50 μg/ml in Hank's Balanced Salt Solution (HBSS) immediately before use. Cytochalasin B, 200 μl, was added to 1 ml of suspension of neutrophils, 6.25×10^6 cells/ml in HBSS, to achieve a final cytochalasin B concentration of […]. The solution was then incubated in 96 well plates at room temperature for 10 min. The stimulant, 100 μl, was added, and this cell suspension was incubated for 30 min at 37° C. The plates were centrifuged and 100 μl of supernatant was removed. […] After 16 hr incubation at 37° C., 200 μl of 0.2 M Glycine in 0.2 M NaCl, pH10.4 was added to each well and OD540 was measured as the enzyme activity.

The test system of test [2] is A549 (adenocarcinoma of lung). Kind of test: Growth of A549, cell count. It is filed as cell-based. To be noted: A549, 7 days, media replaced every 24 hours. How it is done: (§3) FIG. 20 The effect of Antileukinate on growth of A549 (adenocarcinoma of lung). A549 cells were plated at a density of 5×10^3 cells in 24-well plate with growth medium. After the cells adhered to the plate, supernatants were aspirated and culture media containing various concentrations of Antileukinate were added to the wells. The media was replaced every 24 hours and the cells were cultured for 7 days. After incubation, cells were detatched with trypsin-EDTA and the cell number was counted using a hemocytometer. Cell number was decreased in a dose-dependent manner and there are significant differences from control at concentrations greater than, or equal to 50 μM of Antileukinate (p<0.05).

Test [3] deals with T1, GRO binding to human neutrophils (Homo sapiens, UniProt P25025).
T1 construct: endogenous in cells; host or cells: human neutrophils
T1 sequence (P25025 whole entry): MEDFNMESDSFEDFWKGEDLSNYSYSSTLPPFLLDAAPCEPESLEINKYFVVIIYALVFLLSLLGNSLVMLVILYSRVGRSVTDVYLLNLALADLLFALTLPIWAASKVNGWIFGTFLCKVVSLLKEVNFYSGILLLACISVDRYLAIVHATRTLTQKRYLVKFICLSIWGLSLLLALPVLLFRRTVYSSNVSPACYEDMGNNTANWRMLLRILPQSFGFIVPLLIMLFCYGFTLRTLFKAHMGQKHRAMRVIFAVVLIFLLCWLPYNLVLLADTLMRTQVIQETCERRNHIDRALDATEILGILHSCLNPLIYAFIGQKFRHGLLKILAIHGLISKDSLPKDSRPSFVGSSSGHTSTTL
Kind of test: Binding of radioiodinated GRO/MGSA to human neutrophils. To be noted: 1 nM GRO. How it is done: FIG. 10. Ac-RRWWCX (SEQ ID NO:23) Inhibits Binding of GRO and MIP2β to human neutrophils. Radioiodinated MIP2β and GRO/MGSA were mixed with various concentration of Ac-RRWWCR-NH2 and incubated at room temperature for 15 min. Neutrophil suspension (1×10^6 cells in 160 μl PBS containing 0.1% BSA) was added to 40 μl of the mixture and incubated for 90 min on ice. The radioactivity bound to the cells was separated from free radioactivity by centrifugation through an oil layer. The % binding inhibition was calculated as follows: [formula]
MIP2β and GRO/MGSA were radioiodinated using Bolten Hunter reagent. The radioiodinated components were mixed with various concentration of the Ac-RRWWCX-NH2 (SEQ ID NO:23) peptide and incubated at room temperature for 15 min. Neutrophil suspension (1×10^6 cells in 160 μl PBS containing 0.1% BSA) was added to 40 μl of the mixture and incubated for 90 min on ice. The radioactivity bound to the cells was separated from free radioactivity by centrifugation through an oil layer. The bound radioactivity is an indication of bound CXC intercrine peptide. The % binding inhibition in the presence of Ac-RRWWCX-NH2 (SEQ ID NO:23) was calculated as follows: [formula]
where B is bound radioactivity in the presence of the peptide, T is bound radioactivity in the absence of the peptide, and NSP is bound radioactivity in the presence of excess nonlabeled ligand.

Test [4] deals with adenocarcinoma from stomach AGS. Kind of test: Tumor cell growth, AGS. Type of test: cell-based.
Another test concerns A375SM melanoma cells. Kind of test: Tumor cell growth, A375SM. It is filed as cell-based.
The test system of test [5] is NCI-H292 (squamous cell carcinoma of lung). Kind of test: Growth of NCI-H292, cell count. Type of test: cell-based. Particulars: NCI-H292, 7 days, media replaced every 24 hour. How it is done:
as §3, with “19.” for “20”, “NCI-H292 (squamous cell carcinoma” for “A549 (adenocarcinoma”, “NCI-H292” for “A549”, “hour” for “hours”

The test system of test [6] is C5a-stimulated neutrophil enzyme release. Kind of test: β-glucuronidase release from neutrophils stimulated by C5a. It is filed as cell-based, human. To be noted: 100 nM C5a. The method, then: as §1, §2
Test [7] concerns lung adenocarcinoma cell line NCI-H441. Put plainly: Tumor cell growth, NCI-H441. It is filed as cell-based.
The target of test [8] is T2, MIP-1α binding to human neutrophils (Homo sapiens, UniProt P32246).
T2 construct: endogenous in cells; host or cells: human neutrophils
T2 sequence (P32246 whole entry): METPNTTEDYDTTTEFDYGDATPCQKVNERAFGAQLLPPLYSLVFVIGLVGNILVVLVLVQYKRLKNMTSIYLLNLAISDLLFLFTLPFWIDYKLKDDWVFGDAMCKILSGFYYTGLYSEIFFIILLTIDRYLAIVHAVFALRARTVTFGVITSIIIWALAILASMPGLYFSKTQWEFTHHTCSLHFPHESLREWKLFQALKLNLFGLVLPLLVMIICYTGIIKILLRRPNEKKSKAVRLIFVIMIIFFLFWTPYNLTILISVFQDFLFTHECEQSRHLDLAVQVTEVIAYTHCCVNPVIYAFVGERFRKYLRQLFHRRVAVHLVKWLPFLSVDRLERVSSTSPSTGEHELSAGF
Put plainly: Binding of radiolabeled MIP-1α to human neutrophils.

Regarding RRWWCR [Ac-RRWWCR-NH2], the “cell growth at 100 μM peptide” value in the test with RPMI-7951 melanoma cells (RPMI-7951, 100 μM) was “suppressed the cell growth almost completely”. The EC50 in the test on RPMI-7951 melanoma cells (RPMI-7951, 72 hr, medium changed every 24 hr, read-out: ED50, cell growth inhibition) came to 31 µM; in test [1] (read-out: EC50, inhibition of enzyme release from neutrophils stimulated by IL-8), 0.8 µM. Besides, the “peptide concentration inhibiting β-glucuronidase release” value in [1] (stimulated by 100 nM IL-8) was 2 µM. Besides, the “concentrations with significant difference in cell number from control (p<0.05)” value in test [2] and in test [5] was at least 50 µM each time. In addition, the “effect on binding of GRO to neutrophils” value in test [3] is recorded as “effectively suppress the binding”. Moreover, the “effect on cell growth” value is recorded as “inhibits growth” in test [4], “suppresses the growth” in the test with A375SM melanoma cells and “inhibits growth” in test [7]. Moreover, in test [6], the “effect on enzyme release stimulated by C5a” value is “did not affect the enzyme release”. Further, the “effect on binding of radiolabeled MIP-1α” value in test [8] is “did not affect the binding”.
